The subject of one data set is MCF7 cells. Kind of data set: Growth inhibition assay (NCI method, sulforhodamine B), MCF7. The data set is classed as cell-based, human. The following applies: MCF7; human breast cancer cells, 48 hr, 10% serum; read-out: GI50 (μM) MCF7.
In data set [1] the test system is estrogen receptor (ERE-luciferase) in MCF7 ER-positive cells. Kind of data set: ERE-Luciferase assay, estrogenic and antiestrogenic activity. The data set is classed as cell-based, human. As to the method:
Cell Culture Studies (MCF7 ER-Positive Cells)
Human cancer cell lines derived from breast (MCF7, ER-positive cells) were cultured in 75 ml culture flasks in DMEM (Invitrogen, Co.) supplemented with 10% FBS (Life Technologies, Inc., Gaithersburg, Md.), basic minimum MEM essential (50×, Invitrogen Co.) and MEM non-essential (100×, Invitrogen, Co.) amino acids, sodium pyruvate (100× Invitrogen Co.), antimicotic-antibiotic (10,000 U/mL penicillin G sodium; 10,000 μg/mL streptomycin sulphate; 25 μg/mL amphotericin B as Fungizone®), and human recombinant insulin (4 mg/mL. Invitrogen Co.). The culture flasks were maintained in a tissue culture incubator in a humidified atmosphere of 5% CO2 and 95% air at 37° C. For estrogen studies, cells were washed with PBS 3 times and grown in phenol red-free DMEM supplemented with 5% dextran-coated charcoal-treated FBS (5% CS-FBS) for 72 h before plating for each particular experiment.
Results were then assessed by using an ERE-luciferase assay. The cells were plated in 24 well plates at 5×10^5 cells/well in the same media and allowed to attach overnight. After 18 hours, cells were transfected for 5 h in serum supplemented-free DMEM with […] pGL2-ERE2X-TK-luciferase plasmid, using 6 μl of effectine (Qiagen)/μg of DNA. After 5 h the transfection medium was removed and replaced with phenol red-free DMEM supplemented with 5% CS-FBS containing vehicle, 17β-estradiol, GLY I, or 17β-estradiol plus GLY I, and incubated at 37° C. After 18 h the medium was removed, and 100 μl of lysis buffer was added per well and then incubated for 15 min at room temperature. Cell debris was pelleted by centrifugation at 15000×g for 5 min. cell extracts were normalized for protein concentration using reagent according to the protocol supplied by the manufacturer (Bio-Rad Laboratories, Inc., Hercules, Calif.). Luciferase activity for the cell extracts was determined using Luciferase substrate (Promega Corp.) in an Autoluminat Plus luminometer.

The test system of a further data set is MCF12A cells. Kind of data set: Growth inhibition assay (NCI method, sulforhodamine B), MCF12A. The note with it: MCF-12A; non-cancerous 'normal' human breast epithelial cells, 48 hr; read-out: GI50 (μM) MCF12A. The data set is classed as cell-based, human.
The nature of a further data set: ABTS antioxidant assay. The following applies: for Trolox Equivalents (μmol/μmol): IC50 compared to IC50 of trolox; for IC50: concentration causing 50% reduction in ABTS absorbance, 2 min, room temperature. On the procedure: This example illustrates how the biological data pertaining to antioxidant properties of the compounds was obtained.
The antioxidant activity of each test agent was assayed by a colorimetric assay described in the literature that utilizes 2,2′-azinobis-3-ethylbenzothiazoline-6-sulfonic acid (ABTS). ABTS has an intense blue-green color in its free radical form, but is colorless without the free radical. Free radical ABTS was generated by reacting 7 mM ABTS with 2.45 mM potassium persulfate in water for 24-48 hr at room temperature in the dark. Test agents were diluted in 50/50 phosphate buffered saline (PBS)/ethanol to a series of five concentrations, then added to a 96 well half-area plate using 50 μl per well with four wells for each agent concentration. Four control wells containing 50/50 PBS/ethanol without test agents were setup for comparison for each test agent. Trolox, a water-soluble form of vitamin E commonly employed as an antioxidant standard, was also tested in each set of experiments. The free radical ABTS solution was diluted with 50/50 PBS/ethanol to give an absorbance of 1.4 absorbance units at 734 nm, and was then added 50 μl per well to two of the four wells for each condition. The other two wells for each condition received 50 μl of 50/50 PBS/ethanol without ABTS to provide background correction absorbance readings. All dilution and plate loading operations were performed on a Packard Multiprobe II HTS automated liquid handling system. […] Readings for wells with ABTS were background corrected using the corresponding wells containing matching test agent levels without ABTS. The background corrected absorbance of each test agent concentration was then compared to the control wells without agent to determine the percent decrease in color intensity, corresponding to the percent of ABTS free radical reduction. A fit of percent absorbance decrease versus test agent concentration was then used to estimate the concentration causing a 50% reduction in absorbance, called the IC50. The test agent IC50 values were then compared to the IC50 of trolox to calculate the trolox equivalents (TE, moles of trolox needed to give the same level of antioxidant activity as one mole of test agent) for each agent. Smaller IC50 values or larger TE values indicate higher levels of antioxidant activity.

For a further data set, the system named is NCI/ADR-RES cells. Kind of data set: Growth inhibition assay (NCI method, sulforhodamine B), NCI/ADR-RES. The data set is classed as cell-based, human. The following applies: Homo sapiens, NCI/ADR-RES; multidrug resistant cell line, 48 hr; read-out: GI50 (μM) NCI/ADR-RES.
Data set [2] has as its target T1, hrER-α (alpha estrogen receptor) (Homo sapiens, UniProt P03372).
T1 sequence (P03372 1-595): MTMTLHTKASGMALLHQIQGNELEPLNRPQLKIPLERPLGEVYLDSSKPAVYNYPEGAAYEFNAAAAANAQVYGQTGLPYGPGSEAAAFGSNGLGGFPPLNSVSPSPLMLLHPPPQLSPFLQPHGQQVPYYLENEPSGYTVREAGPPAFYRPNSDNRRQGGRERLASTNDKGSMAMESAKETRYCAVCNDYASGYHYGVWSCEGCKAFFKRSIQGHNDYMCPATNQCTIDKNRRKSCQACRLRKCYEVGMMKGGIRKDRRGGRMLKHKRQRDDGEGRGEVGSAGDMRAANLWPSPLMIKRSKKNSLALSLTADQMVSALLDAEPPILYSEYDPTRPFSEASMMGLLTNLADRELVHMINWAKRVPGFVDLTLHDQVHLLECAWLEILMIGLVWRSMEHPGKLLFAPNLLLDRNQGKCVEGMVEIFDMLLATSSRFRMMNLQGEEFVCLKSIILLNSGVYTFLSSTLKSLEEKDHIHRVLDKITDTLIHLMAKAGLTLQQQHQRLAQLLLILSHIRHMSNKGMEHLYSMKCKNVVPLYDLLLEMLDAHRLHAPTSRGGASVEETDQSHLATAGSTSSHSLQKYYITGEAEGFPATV
Kind of data set: ER-α competition binding assay (fluorescence anisotropy, ES2 displacement). The note with it: ERα/ES2 complex, 2 h room temperature, FIG. 9; read-out: IC50 for 50% inhibition of a standard's binding with the alpha estrogen receptor (ER-α). As to the method:
This example illustrates how the biological data pertaining to interaction of the compounds with the alpha-estrogen receptors was obtained.
A 200 μM working stock solution of GLY I was prepared from an original 10 mM DMSO stock solution. The working stock solution was serially diluted in triplicate in screening buffer to the desired concentrations. hrER-α and ES2 were added to a final concentration of 2 nM and 3 nM, respectively. Negative (ER+ES2, equivalent to 0% inhibition) and positive (free ES2, equivalent to 100% inhibition) controls in the absence of competitor were measured in duplicate. After 2 h at room temperature, the anisotropy values in each tube were measured using the Beacon 2000 system CO. The anisotropy values were converted to percent inhibition using the following formula: I%=(A0−A)/(A0−A100)×100, where I% is the percent inhibition, A0 is 0% inhibition, A100 is 100% inhibition, and A represents the observed value. Polarization values were converted to percent inhibition to make the data more intuitive to the reader and to normalize the day-to-day differences in the starting 0% inhibition polarization values. The percent inhibition versus competitor concentration curves were analyzed by nonlinear least-squares curve fitting and yielded an IC50 value (the concentration of competitor needed to displace half of the bound ligand). To compare binding affinities of the test compounds to those reported in the literature, IC50 values were converted to relative binding affinities (RBA) using E2 as a standard. The E2 RBA was set equal to 100 […].
Background: Fluorescence polarisation rises when a labelled molecule tumbles more slowly, as on binding a larger partner.

A short description of data set [3]: pH stability study by HPLC. The data set is classed as physicochemical. From the text: This instability could derive by formation of a quinone-methide from the now unprotected ‘Southern’ ring's phenolic hydroxyl-group. Thus, mildly acidic reagents that might be used for de-protection were explored. In the end, NEt3.3 HF (see, e.g., L. D. Julian, J. S. Newcom, W. R. Roush, J. Am. Chem. Soc. 2005, 127, 6186-6187, which is hereby incorporated by reference in its entirety), which provides a pH in the range of 4-5 when run on the 0.1 mmole scale in anhydrous acetonitrile, was most successfully utilized for this transformation. Even with this approach, however, it is important to adjust the pH of the post-reaction medium (as readily followed by TLC) to pH 7-8 by addition of triethylamine so as to avoid decomposition during subsequent workup. Final compounds are obtained in the range of ca. 65-70% yields. Assignment of stereochemistry for these final materials can be accomplished with NMR and CD. In addition, at this point it is convenient to take advantage of chiral HPLC wherein authentic materials from natural sources can be used as standards along with the synthesized racemic materials.

From patent US8563599B2, “Methods for synthesizing glycinols, glyceollins I and II, compositions of selected intermediates, and therapeutic uses thereof” (The United States of America, represented by the Secretary …, priority 2008, dated 2013) come the findings set out here.

What is called IC50 is the midpoint of a concentration-inhibition curve. For `CC1(C)C=Cc2c(ccc3c2OC[C@]2(O)c4ccc(O)cc4O[C@H]32)O1` [7 (+), (+) Glyceollin I (Unnatural Glyceollin I)], the values for the GI50 in the data set on MCF7 cells, in the data set with MCF12A cells and in the data set with NCI/ADR-RES cells were 21 µM, 31 µM and 38 µM, respectively. The “estrogenic activity (ERE-Luciferase)” value in data set [1] (at 10-25 μM) is on record as “modest estrogenic activity”. Also, in data set [1] (concentration not given), the “anti-estrogenic effects (ERE-Luciferase)” value is “only slight anti-estrogenic effects”. In the data set “ABTS antioxidant assay”, the “Trolox Equivalents (μmol/μmol)” value came to 1.8 ± 0.1 μmol/μmol. Also, the figures for the half-maximal inhibitory concentration (IC50) (in “ABTS antioxidant assay”; in data set [2]) were 5.2 ± 0.3 µM and 1.4 µM, respectively.
As to `CC1(C)C=Cc2c(ccc3c2OC[C@@]2(O)c4ccc(O)cc4O[C@@H]32)O1` [7 (−), Glyceollin I (Natural Glyceollin I)], the GI50 in the data set with MCF7 cells worked out at 12 µM; in the data set on MCF12A cells, 25 µM; in the data set with NCI/ADR-RES cells it was 27 µM. Besides, the “anti-estrogenic activity (ERE-Luciferase)” value in data set [1] (at 10-25 μM) is listed as “only anti-estrogenic activity”. Further, in the data set “ABTS antioxidant assay”, the “Trolox Equivalents (μmol/μmol)” value is 1.8 ± 0.1 μmol/μmol. In addition, the IC50 amounted to 5.3 ± 0.3 µM in the data set “ABTS antioxidant assay” and 1.4 µM in data set [2].
For the compound `CC1(C)C=Cc2c(ccc3c2OCC2(O)c4ccc(O)cc4OC32)O1` (racemic) [racemic (±)-GLY I, (+) Glyceollin I (Racemic Glyceollin I)], the figures for the “stability of ring system (HPLC)” value in data set [3] (acidic pH as low as 4) and in data set [3] (basic pH above 8) were “reasonable stability” and “not stable”, respectively. In addition, in data set [1] (at 10 μM, E2 at 100 pM), the “anti-estrogenic activity (ERE-Luciferase)” value was “strong anti-estrogenic activity”. Also, the “estrogenic activity (ERE-Luciferase)” value in data set [1] (concentration not given) is recorded as “no significant estrogenic activity”. In addition, the IC50 in data set [2] stood at 1.4 µM.
